Experimental data reported in article PMC8875074, “Development of Bactericidal Peptides against Multidrug-Resistant Acinetobacter baumannii with Enhanced Stability and Low Toxicity” (International Journal of Molecular Sciences, 2022).
In brackets after ≈: the same amount, converted by molar mass. Read-outs that look alike come from different tables or passages of the source.

Legend:
MDR A. baumannii 1607 = assay: MIC/MBC antimicrobial assay; type: cell-based; settings: Acinetobacter baumannii; MDR strain 1607; normal media; triplicate, two independent experiments
Procedure: (§1) Bacterial cells Acinetobacter baumannii 10591 and 14B0091 were obtained from BCRC Taiwan. All the MDR strains were obtained from the hospital as gifts. The antimicrobial assay was performed as per the standard protocol; 50 µL of 10^6 CFU/mL of mid-log phase bacterial suspension was treated with 50 µL of candidate peptide and meropenem (Sigma: PHR1772) incubated at 37 °C for 960~1200 min. The clear wells corresponding to the lowest concentrations are reported as the minimum inhibitory concentration (MIC). Suspensions from the clear wells were plated on Mueller–Hinton agar (MHA) plates and incubated at 37 °C overnight. The lowest concentration corresponding to no growth was recorded as the minimum bactericidal concentration (MBC). To detect the effect of human serum (H3667, Sigma Aldrich, St. Louis, MO, USA) on the peptides, the media was replaced with 50% human serum-containing media. Similarly, to detect the effect of lung surfactant (SURVANTA®, beractant, AbbVie Inc., Lake Bluff, IL, USA (25 mg/mL)) on the antimicrobial activity of the peptide, the normal media was replaced with 5% lung surfactant-containing media. To analyse the bacterial killing kinetics, after the addition of the peptide to the bacterial suspension, 10 µL of broth was diluted 1000 times, plated at 30 min intervals, and allowed to incubate for 90 min. The bacterial load is expressed as CFU/mL as a function of time.

MDR A. baumannii 2962 = assay: MIC/MBC antimicrobial assay; type: cell-based; settings: Acinetobacter baumannii; MDR strain 2962; normal media; triplicate, two independent experiments
Procedure: as §1

MDR A. baumannii 2998 = assay: MIC/MBC antimicrobial assay; type: cell-based; settings: Acinetobacter baumannii; MDR strain 2998; normal media; triplicate, two independent experiments
Procedure: as §1

MDR A. baumannii 921 = assay: MIC/MBC antimicrobial assay; type: cell-based; settings: Acinetobacter baumannii; MDR strain 921; normal media; triplicate, two independent experiments
Procedure: as §1

A. baumannii 10591 [1] = assay: Biofilm rupture assay; type: cell-based, Acinetobacter baumannii; settings: at the lowest concentration (25 µg/mL)
Procedure: For the biofilm inhibition assay, 106 bacterial cells were treated with peptide at various concentrations in MHB media containing 0.2% glucose for 24 h at 37 °C in 96-well plates. The wells were then washed with PBS, treated with 100% methanol for 15 min, and the washes were discarded. Crystal violet solution (0.02%) was added to the dry plates and incubated for 30 min. The wells were then washed and treated with 33% acetic acid, followed by detection at 595 nm. For the biofilm rupture assay, 106 bacterial cells were grown overnight. The residual liquid was discarded, followed by washing with PBS. Next, 100 µL of peptide at different concentrations was added as estimated according to the biofilm inhibition assay.

A. baumannii (10591) = assay: Induced resistance (serial passage) assay; type: cell-based, Acinetobacter baumannii; settings: 15 cycles, from subinhibitory wells
Procedure: A total of 50 µL of 10^6 CFU/mL bacterial cells were treated with different concentrations of peptide. Bacterial cells from subinhibitory wells were subcultured by passaging for 15 cycles, followed by testing their MIC values. The fold change in MIC was reported in comparison with starting MIC values.

A. baumannii = assay: Peptide sensitivity to temperature (MIC/MBC after heating); type: cell-based, Acinetobacter baumannii
Procedure: as §1
Here, 50 µL of 10^6 CFU/mL bacterial cells were treated with peptide previously incubated at 40, 60, 80, and 100 °C for 1 h. The peptide activity was reported as per the standard MIC and MBC protocols.

MDR A. baumannii 14B0091 = assay: MIC/MBC antimicrobial assay; type: cell-based, Acinetobacter baumannii; settings: MDR strain 14B0091, triplicate, two independent experiments
Procedure: as §1

A. baumannii 10591 [2] = assay: MIC/MBC antimicrobial assay; type: cell-based, Acinetobacter baumannii; settings: for MBC: A. baumannii 10591 wild strain, triplicate, two independent experiments
Procedure: as §1

[3] = Acinetobacter baumannii, media containing 50% human serum, read-out: MBC

With `C[C@@H](O)[C@H]1C(=O)N2C(C(=O)O)=C(S[C@@H]3CN[C@H](C(=O)N(C)C)C3)[C@H](C)[C@H]12` [Meropenem, meropenem] the MBC (MDR A. baumannii 1607) was 50 µg/mL (≈ 130 µM), the MIC (MDR A. baumannii 1607) was 50 µg/mL (≈ 130 µM) and the MBC (MDR A. baumannii 2962) was 50 µg/mL (≈ 130 µM). The MIC (MDR A. baumannii 2962) was 50 µg/mL (≈ 130 µM), the MBC (MDR A. baumannii 2998) was > 100 µg/mL and the MIC (MDR A. baumannii 2998) was > 100 µg/mL. The MBC (MDR A. baumannii 921) was > 100 µg/mL, the MIC (MDR A. baumannii 921) was 100 µg/mL (≈ 261 µM) and the biofilm rupture (A. baumannii 10591 [1]) was “nonsignificant biofilm rupture”. For the same molecule, the “increase in MIC versus the initial MIC value (fold)” value (A. baumannii (10591)) was “up to 16 fold”, the MIC (A. baumannii; Acinetobacter baumannii) was 1.56 µg/mL (≈ 4.07 µM) and the MBC (A. baumannii; Acinetobacter baumannii, agent incubated at 40 °C for 1 h prior to the assay, triplicate, two experiments) was 1.56 µg/mL (≈ 4.07 µM). For the same molecule, the MBC (A. baumannii; Acinetobacter baumannii, agent incubated at 60 °C for 1 h prior to the assay, triplicate, two experiments) was 1.56 µg/mL (≈ 4.07 µM), the MBC (A. baumannii; Acinetobacter baumannii, agent incubated at 80 °C for 1 h prior to the assay, triplicate, two experiments) was 3.12 µg/mL (≈ 8.15 µM) and the MIC (A. baumannii; Acinetobacter baumannii, agent incubated at 80 °C for 1 h prior to the assay, triplicate, two experiments, read-out: MIC) was 3.12 µg/mL (≈ 8.15 µM). For the same molecule, the MBC (A. baumannii; Acinetobacter baumannii, agent incubated at 100 °C for 1 h prior to the assay, triplicate, two experiments) was 50 µg/mL (≈ 130 µM), the MIC (A. baumannii; Acinetobacter baumannii, agent incubated at 100 °C for 1 h prior to the assay, triplicate, two experiments, read-out: MIC) was 50 µg/mL (≈ 130 µM) and the MIC (A. baumannii; agent incubated at 60 °C for 1 h prior to the assay, triplicate, two experiments) was 1.56 µg/mL (≈ 4.07 µM). For the same molecule, the MBC (MDR A. baumannii 14B0091; [3]) was > 100 µg/mL, the MIC (MDR A. baumannii 14B0091; Acinetobacter baumannii, media containing 50% human serum, read-out: MIC) was > 100 µg/mL and the MBC (MDR A. baumannii 14B0091; normal media) was >100 µg/mL. For the same molecule, the MIC (MDR A. baumannii 14B0091; normal media) was >100 µg/mL, the MBC (A. baumannii 10591 [2]; media containing 5% lung surfactant) was 1.56 µg/mL (≈ 4.07 µM) and the MIC (A. baumannii 10591 [2]; Acinetobacter baumannii, 10591) was 1.56 µg/mL (≈ 4.07 µM). It also gave an MBC (A. baumannii 10591 [2]; [3]) of 1.56 µg/mL (≈ 4.07 µM).
